# According to patent US7381731B2, “Pharmaceutical composition comprising citrulline” (Angiogenix, Inc., priority 1994, dated 2008):
# Columns and labels:
# y^+ transporter = assay: y+ transport of [3H]-LA in cells exposed to NOS agonists or NO donors, sodium-free uptake buffer; assay type: cell-based, bovine; details: for maximum inhibition of y+ transport: FIG. 16; for inhibition of L-arginine transport: data not shown; for increase of [3H]-LA uptake: Ach 5 μM; for increase of y+ transport of L-arginine / increase of y+ transporter activity from control: SP 1 μM
# Protocol: Effect of NOS agonists on cellular uptake of LA.
# Effect of NO donors on cellular uptake of LA.
# In order to confirm whether the reduction in cellular uptake of [^3H]-LA was due to NO released from SNAP, experiments were performed using another NO donor, DPTA-NONOate. Unlike SNAP, which donates large amounts of NO over a short time period (t1/2˜10 minutes), the use of DPTA-NONOate allows for a slower (t1/2˜5 hours), more sustained release of NO that is constant over time.
# [1] = system: bovine aortic endothelial cells (BAEC); assay: Superoxide anion (O2*—) formation in BAEC; assay type: cell-based; details: for increase of O2*— production above basal levels: 1 μM; for increase of O2*— production above basal levels / prevention of basal production of O2*—: 60 minute period; for inhibition of O2*— production induced by A-23187: A-23187 1 μM; for inhibition of O2*— production induced by A-23187 / reduction of O2*— induced by SP: concurrent treatment 5×10^−4M; for reduction of O2*— induced by SP: SP 1 μM; for prevention of basal production of O2*—: supplementation 5×10^−4M
# Source text: Cellular superoxide anion formation—Effect of NOS agonists on cellular superoxide anion formation.
# [2] = system: cultured bovine aortic EC; assay: DOX as NOS agonist: NO production by oxyhemoglobin/methemoglobin conversion and NO sensitive electrode; assay type: cell-based
# Protocol: In fact, a wide variety of vasoactive agents (e.g., bradykinin, muscarinic agonists and growth factors) which increase tPA levels are also agonists of nitric oxide synthase (NOS). DOX activity as a NOS agonist was investigated in cultured bovine aortic EC using two methods to assess NO production: conversion of oxyhemoglobin to methamoglobin and a NO sensitive electrode.
# For all experiments described herein, human coronary artery endothelial cells (passage 3-5-Clonetics) were maintained at 37°, […] and 5% CO2 in Medium 199 (M199) supplemented with 5% fetal bovine serum (FBS, Hyclone), 10% iron supplemented FBS (Hyclone), thymidine ([…]), penicillin G (100 U mL^−1) and streptomycin (100 μmL^−1). […] Acetylcholine, an eNOS agonist, was used in all experiments as the positive control at concentrations of 10^−7 and 10^−6 M.
# Nitric Oxide Measurements. Methemoglobin—The effect of DOX on NO production in EC was determined using a photometric assay for conversion of oxyhemoglobin to methemoglobin. […] Perfusate is then directed into a flow-through cuvette in a dual wavelength spectrophotometer and change in absorbency (415/405 nm) is measured. Experimental stimulation was carried out by 3 min infusion periods of DOX added to buffer perfusion to yield final concentrations of 10^−7 and 10^−6 M. For analysis, we determined the area under the curve for the change in absorbency response/min caused by DOX assuming a one to one correspondence for NO and metHb production, the known stoichiometric balance for this reaction. NO production was measured with a NO meter connected to a polargraphic NO electrode as previously described. The NO sensor probe will be inserted vertically into 24-well plates containing confluent EC such that the tip of the electrode is submerged 2 mm under the surface of medium (above −1 ml). The reaction was initiated when desired concentrations of DOX are added to the well. Calibrations were performed with S-nitroso-acetyl-penicillamine.
# [3] = system: bovine aortic endothelial cells (BAEC); assay: NO production by endothelial cells on beads, photometric oxyhemoglobin to methemoglobin assay; assay type: cell-based
# Source text: NO oxidize; oxyhemoglobin (HbO2) to methemoglobin (metHb) in the following reaction HbO2+NO−metHb+NO3. The amount of NO produced by endothelial cells was quantified by measuring the change in absorbance as HbO2 oxidizes to metHb. Oxyhemoglobin has a absorbance peak at 415 nm, while methb has a 406 nm absorbance peak. By subtracting the absorbance of metHb from HbO2, the concentration of NO can be assessed. The general method was patterned after that of Feelisch et al., (Biochem. and Biophy. Res. Comm. 1991; 180, Nc I:286-293).
# The effects of pravastatin on activity of endothelial cells in producing NO were compared with those of actetylcholine, which is known to specifically stimulate NO production by NOS activity.
compound,measurement,setting,value
"CC(=O)N[C@@H](C(=O)O)C(C)(C)SN=O (racemic) [SNAP, s-nitroso-acetyl-penicillamin]",increase of activity of the y+ transporter,"y^+ transporter; 200 μM SNAP (0.4 μM NO), ten minutes of exposure",37%
same,elevation of activity of the y+ transporter,"y^+ transporter; 200 μM SNAP, 30 minute exposure",not seen
same,reduction of uptake of [3H]-LA,"y^+ transporter; 200 μM SNAP, 1 hour",22%
same,reduction of uptake of [3H]-LA,"y^+ transporter; 200 μM SNAP, 2 hour exposure",46%
same,reduction of uptake of [3H]-LA,"y^+ transporter; 200 μM SNAP, 3 hour exposure",45%
same,reduction of uptake of [3H]-LA,"y^+ transporter; 200 μM SNAP, 5 hour exposure",36%
CNc1ccc2oc(C[C@H]3O[C@@]4(CC[C@H]3C)O[C@H]([C@H](C)C(=O)c3ccc[nH]3)[C@H](C)C[C@H]4C)nc2c1C(=O)O [A-23187],increase of O2*— production above basal levels,[1],2.5 fold
"COc1cc2nc(N3CCN(C(=O)C4COc5ccccc5O4)CC3)nc(N)c2cc1OC (centres unmarked) [DOX, Doxazosin]",increase in NO production,"[2]; DOX 10^−7-10^−5 M, dose-related",64-145%
"NCCCN(CCCN)/[N+]([O-])=N/O [DPTA-NONOate, dipropylenetriamine NONOate]",maximum inhibition of y+ transport,"y^+ transporter; 0.01 μM, 2 hour exposure",20%
same,effect on y+ system,"y^+ transporter; 1 μM DPTA-NONOate (2 μM NO), 15 and 30 min",no significant effect
same,inhibition of L-arginine transport,"y^+ transporter; 1 μM DPTA-NONOate (2 μM NO), 1 hour exposure",22%
same,inhibition of L-arginine transport,"y^+ transporter; 1 μM DPTA-NONOate (2 μM NO), 2 hour exposure",24%
same,inhibition of L-arginine transport,"y^+ transporter; 1 μM DPTA-NONOate (2 μM NO), 4 hour exposure",29%
same,maximum inhibition of y+ transport,"y^+ transporter; 1 μM, 2 hour exposure",24%
same,maximum inhibition of y+ transport,"y^+ transporter; 10 μM, 2 hour exposure",44%
"COC(=O)[C@@H](N)CCCNC(=N)N[N+](=O)[O-] [L-NAME, n-ω-nitro-L-arginine methyl ester]",reduction of acetylcholine-induced production of NO,[3]; buffer containing L-NAME 10^−3 M,80%
same,NO production in response to pravastatin,[3]; superfusion with L-NAME 10^−3 M,blunted
same,block of increase in NO to ACH,"[2]; ACH 10^−6 M, prior L-NAME",86%
same,block of increase in NO to DOX,"[2]; DOX 10^−6 M, prior L-NAME 5×10^−4 M",72%
same,inhibition of O2*— production induced by A-23187,[1],58%
same,reduction of O2*— induced by SP,[1],81%
same,prevention of basal production of O2*—,[1],100%
N=C(N)NCCC[C@H](N)C(=O)O [L-arginine],acetylcholine-elicited production of NO,[3]; L-NAME buffer replaced with buffer containing L-arginine 10^−3 M,returned to control levels
same,NO production in response to pravastatin,[3]; subsequent perfusion with buffer containing L-arginine 10^−3 M,return in NO production to a level above the amount induced by the Pravastatin in control (basis) buffer
same,accentuation of NO responses to ACH,[2]; supplemental L-arginine,72%
same,accentuation of NO responses to DOX,[2]; supplemental L-arginine 5×10^−4 M,65%
same,inhibition of O2*— production induced by A-23187,[1],60%
same,reduction of O2*— induced by SP,[1],51%
same,prevention of basal production of O2*—,[1],not
CC(=O)OCC[N+](C)(C)C [acetylcholine],increase of [3H]-LA uptake,y^+ transporter; 2 minute exposure,22%
same,increase of [3H]-LA uptake,y^+ transporter; 15 minute (maximum),27%
same,increase of [3H]-LA uptake,y^+ transporter; 30 minutes,16%
same,increase of [3H]-LA uptake,y^+ transporter; 60 minutes,15.5%
CC[C@H](C)C(=O)O[C@H]1C[C@H](O)C=C2C=C[C@H](C)[C@H](CC[C@@H](O)C[C@@H](O)CC(=O)O)[C@H]21 [pravastatin],increment in NO response to the 10^−5 M concentration,"[3]; pravastatin 10^−5 M, larger than that of acetylcholine",~3 X
substance P [SP],increase of O2*— production above basal levels,[1],3.5 fold
same,increase of y+ transport of L-arginine,y^+ transporter; 15-minutes exposure,24%
same,increase of y+ transport of L-arginine,y^+ transporter; 30 minutes,24%
same,increase of y+ transport of L-arginine,y^+ transporter; 60 minutes,21%
same,increase of y+ transporter activity from control,y^+ transporter; 2 hour exposure,34%
same,increase of y+ transporter activity from control,y^+ transporter; 3 hour exposure,27%
same,increase of y+ transporter activity from control,y^+ transporter; 5 hour exposure,21%
